Experimental findings from patent EP3156398A1, “AGONISTS OF THE CHEMOKINE RECEPTOR CXCR3” (Friedrich-Alexander-Universität Erlangen-Nürnberg, priority 2015, dated 2017) are described below.

Read-outs that look alike come from different tables or passages of the source.

One assay addresses T1, CXCR3 (Homo sapiens, UniProt P49682).
T1 construct: expressed in transfected cells; host or cells: HEK293 / HEK293T cells, stably transfected; membrane preparations
T1 sequence (P49682 1-368): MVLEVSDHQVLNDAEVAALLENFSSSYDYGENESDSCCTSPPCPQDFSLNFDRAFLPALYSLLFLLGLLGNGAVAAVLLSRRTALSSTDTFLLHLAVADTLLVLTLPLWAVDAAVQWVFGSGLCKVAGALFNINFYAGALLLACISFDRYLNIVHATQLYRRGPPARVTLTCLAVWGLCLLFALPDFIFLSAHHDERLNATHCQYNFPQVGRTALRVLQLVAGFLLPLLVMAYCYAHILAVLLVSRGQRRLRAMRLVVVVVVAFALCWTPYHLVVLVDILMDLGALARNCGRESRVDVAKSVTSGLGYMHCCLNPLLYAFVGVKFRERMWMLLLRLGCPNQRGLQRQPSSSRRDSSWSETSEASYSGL
Kind of assay: [35S]GTPγS incorporation assay. It counts as biochemical. The note with it: for Emax: read-out: CXCR3 Efficacy (%) ± SEM; for CXCR3 pEC50 ± SEM: mean of three experiments in triplicate; for CXCR3 mediated G protein activation (result in words): [35S]GTPγS incorporation. As for the experimental part:
Membrane preparation for allosteric radioligand RAMX3 displacement and [^35S]GTPγS incorporation assays: The human embryonic kidney (HEK) cells stably expressing the human CXCR3 receptor were cultured in 150-mm cell culture plates in DMEM/F-12 supplemented with 10% fetal bovine serum (FBS), 2 mM L-glutamine, 1% penicillin-streptomycin, 300 µgmL^-1 Zeocin and incubated at 37 °C in a humid atmosphere with 5% CO2. At 100% confluency cells were washed with PBS twice, treated with Tris EDTA buffer (10 mM Tris, 0.5 mM EDTA, 5 mM KCl, 140 mM NaCl, pH 7.4), and harvested using a cell scraper. Cells were pelleted at 1100×g for 8 min at 4 °C, resuspended in Tris-EDTA-MgCl2 buffer (50mM Tris, 5 mM EDTA, 1.5 mM CaCl2, 5 mM MgCl2, 5 mM KCl, 120 mM NaCl, pH 7.4) and followed by lysis with an Ultra-Turrax. After centrifugation at 50,000•g, at 4°C for 18 min the membranes were resuspended in the binding buffer (50 mM Tris, 1 mM EDTA, 5 mM MgCl2 and subsequently homogenized with a glass-Teflon homogenizer (20 strokes). The homogenized membranes were shock-frozen in liquid nitrogen and stored at -80°C. The protein concentration was determined with the Lowry method with bovine serum albumin used as a standard.^35
[^35S]GTPγS incorporation assay: The [^35S]GTPγS incorporation assay was performed on membrane preparations of stably transfected HEK293 cells that expressed the CXCR3 receptor. The assay was carried out in 96-well plates at the final volume of 200 µL. The incubation buffer contained 20 mM HEPES, 10 mM MgCl2•6H20,100 mM NaCl and 100 mg/L saponin (pH 7.4). Membranes (30 µgmL^-1 of membrane protein), various concentrations of test compound and CXCL11, and 1 µM GDP were preincubated in the absence of [^35S]GTPγS for 30 min at 37 °C. After the addition of 0.10 nM [^35S]GTPγS membranes were incubated for additional 30 min at 37 °C. Incubation was terminated by filtration through Whatman GF/B filters soaked with ice cold PBS. The filter-bound radioactivity was measured as described above. Three to four experiments per compound were performed with each concentration in triplicate.
The activation of G proteins was explored in terms of CXCR3 mediated [^35S]GTPγS incorporation. In the [^35S]GTPγS incorporation assay the membrane preparations of HEK293T cells stably expressing CXCR3 were used. The activation of G proteins was monitored as the incorporation of [^35S]GTPγS and thus increase in the incorporated radioactivity. The potency and efficacy of the novel compounds was first compared to the reference compound 46/VUF10661. […] Table 1. The ability of the 46/VUF10661 based positive allosteric modulators to activate CXCR3 as measured in the [35S]GTPγS incorporation assay.[a]

In a further assay the target is T2, CXCR3-PK1 (Homo sapiens, UniProt P49682).
T2 construct: expressed in transfected cells; host or cells: HEK293 cells stably expressing beta-gal enzyme acceptor (PathHunter, DiscoveRx), transiently transfected
T2 sequence (P49682 1-368): T1 sequence (P49682 1-368)
Kind of assay: β-arrestin 2 recruitment assay (PathHunter, DiscoveRx), CXCR3-PK1 construct. It counts as cell-based. The procedure: β-arrestin 2 recruitment assay: The measurement of β-arrestin recruitment was performed utilizing the PathHunter assay purchased from DiscoveRx (DiscoveRx, Birmingham, U.K.) according to the manufacturer's protocol. HEK293 cells stably expressing β-gal enzyme acceptor were transiently transfected with the ProLink (PK1) tagged wildtype CXCR3 receptor using the TransIT-293 transfection reagent from Mirus (purchased from MoBiTec, Goettingen, Germany). The assay was carried out in 384-well plates containing 2000 cells in 20 µL. After incubation at 37°C (5% CO2, 95% relative humidity) overnight, various concentrations of test compounds or CXCL11 (prepared in PBS, pH 7.4, containing 0.20% BSA) were added and the incubation continued for 4 h. Detection mix was then added and incubated for further 60 min at room temperature. Chemiluminescence was determined with a microplate reader Clariostar (BMG labtech, Ortenberg, Germany).
The ability of the novel ligands according to the present invention to induce CXCR3-mediated β-arrestin 2 recruitment was investigated in the assay system PathHunter (DiscoveRx), which detects the recruitment of β-amestin 2 to the activated receptor using β-galactosidase (β-gal) enzyme fragment complementation. The inventors used two different ProLink tags, ProLink1 (PK1) and ProLink2 (PK2), of which PK2 has higher affinity for the enzyme acceptor to detect weak protein-protein interactions. The CXCR3-PK2 construct is readily able to detect the differences in the propensity of CXCL11 and CXCL10 to induce β-arrestin 2 recruitment at CXCR3. […] Table 3. Ability of the 46/VUF10661 based positive allosteric modulators to activate the CXCR3 as measured in the β-arrestin 2 recruitment assay (PathHunter, DiscoveRx).[a]

Setting [1] is: % of CXCL11 mediated effect, membrane preparations of HEK293T stably expressing CXCR3.
The mark [2] stands for this setting: membrane preparations of HEK293T stably expressing CXCR3.
[3] abbreviates: HEK293-T cells, PathHunter, CXCR3-PK1, two to three experiments in triplicate.

In the case of `COc1ccc(C(=O)CCC(=O)N2Cc3ccccc3C[C@H]2C(=O)NCCCC[C@H](NC(=O)OC(C)(C)C)C(=O)NCC(c2ccccc2)c2ccccc2)cc1OC` [Compound 21, Tert-butyl ((S)-6-((S)-2-(4-(3,4-dimethoxyphenyl)-4-oxobutanoyl)-1,2,3,4-tetrahydroisoquinoline-3-carboxamido)-1-((2,2-diphenylethyl)amino)-1-oxohexan-2-yl)carbamate], on CXCR3 (setting [1]), the “CXCR3 Efficacy (%) ± SEM” value is listed as 18±1% and the Emax came out at 18%. Moreover, the “CXCR3 pEC50 ± SEM” value on CXCR3 (setting [2]) amounted to 7.30±0.17. In addition, the “β-arrestin 2 recruitment, intrinsic agonism (result in words)” value at CXCR3-PK1 is recorded as “complete loss of intrinsic agonistic properties”. Besides, the “CXCR3-PK1 pEC50 ± SEM” value at CXCR3-PK1 (setting [3]) is on record as “No effect”.

Take `CC(C)(C)OC(=O)N[C@@H](CCCCNC(=O)[C@@H]1Cc2ccccc2CN1C(=O)CCC(=O)N1CCCCC1)C(=O)NCC(c1ccccc1)c1ccccc1` [Compound 16, Tert-butyl ((S)-1-((2,2-diphenylethyl)amino)-1-oxo-6-((S)-2-(4-oxo-4-(piperidin-1-yl)butanoyl)-1,2,3,4-tetrahydroisoquinoline-3-carboxamido)hexan-2-yl)carbamate]: at CXCR3 (setting [1]), the “CXCR3 Efficacy (%) ± SEM” value was “No effect”. The “CXCR3 mediated G protein activation (result in words)” value (from here on “CXCR3 mediated G protein activation”) at CXCR3 was “no reactivity was observed”. Besides, on CXCR3 (setting [2]), the “CXCR3 pEC50 ± SEM” value was “No effect”. Further, the “CXCR3-PK1 pEC50 ± SEM” value on CXCR3-PK1 (setting [3]) is reported as “No effect”.

As for `CC(C)(C)OC(=O)N[C@@H](CCCCNC(=O)[C@@H]1Cc2ccccc2CN1C(=O)CCCc1ccccc1)C(=O)NCC(c1ccccc1)c1ccccc1` [Compound 22, Tert-butyl ((S)-1-((2,2-diphenylethyl)amino)-1-oxo-6-((S)-2-(4-phenylbutanoyl)-1,2,3,4-tetrahydroisoquinoline-3-carboxammido)hexan-2-yl)carbamate], the “CXCR3 pEC50 ± SEM” value on CXCR3 (setting [2]) amounted to 5.07±0.50. Besides, at CXCR3, the Emax was 29 ± 15%. In addition, the “CXCR3-PK1 pEC50 ± SEM” value at CXCR3-PK1 (setting [3]) is on record as “No effect”.

As to `CC(C)(C)OC(=O)N[C@@H](CCCCNC(=O)[C@@H]1Cc2ccccc2CN1C(=O)CCC(=O)c1cccs1)C(=O)NCC(c1ccccc1)c1ccccc1` [Compound 19, Tert-butyl ((S)-1-((2,2-diphenylethyl)amino)-1-oxo-6-((S)-2-(4-oxo-4-(thiophen-2-yl)butanoyl)-1,2,3,4-tetrahydroisoquinoline-3-carboxamido)hexan-2-yl)carbamate], the “CXCR3 Efficacy (%) ± SEM” value at CXCR3 (setting [1]) is recorded as “No effect”. Also, at CXCR3 (setting [2]), the “CXCR3 pEC50 ± SEM” value is recorded as “No effect”. The “CXCR3-PK1 pEC50 ± SEM” value at CXCR3-PK1 (setting [3]) is “No effect”.

Take `CC(C)(C)OC(=O)N[C@@H](CCCCNC(=O)[C@@H]1Cc2ccccc2CN1C(=O)CCC(=O)N1CCOCC1)C(=O)NCC(c1ccccc1)c1ccccc1` [Compound 17, Tert-butyl ((S)-1-((2,2-diphenylethyl)amino)-6-((S)-2-(4-moipholino-4--oxobutanoyl)-1,2,3,4-tetrahydroisoquinoline-3-carboxamido)-1-oxohexan-2 yl)carbamate]: the “CXCR3 Efficacy (%) ± SEM” value on CXCR3 (setting [1]) is recorded as “No effect”. In addition, at CXCR3, the “CXCR3 mediated G protein activation” value is reported as “no effect”. For the same compound, the “CXCR3 pEC50 ± SEM” value on CXCR3 (setting [2]) was “No effect”. In addition, the “CXCR3-PK1 pEC50 ± SEM” value on CXCR3-PK1 (setting [3]) is “No effect”.

As to `CC(C)(C)OC(=O)N[C@@H](CCCCNC(=O)[C@@H]1Cc2ccccc2CN1C(=O)CCC(=O)c1ccc(F)cc1)C(=O)NCC(c1ccccc1)c1ccccc1` [Compound 13, Tert-butyl ((S)-1-((2,2-diphenylethyl)amino)-6-((S)-2-(4-(4-fluorophenyl)-4-oxobutanoyl)-1,2,3,4-tetrahydroisoquinoline-3-carboxamido)-1-oxohexan-2-yl)carbamate], the Emax on CXCR3 (setting [1]) was found to be 20 ± 3%. Moreover, the “CXCR3 pEC50 ± SEM” value at CXCR3 (setting [2]) worked out at 6.29±0.31. Moreover, on CXCR3-PK1, the “β-arrestin 2 recruitment, intrinsic agonism (result in words)” value is recorded as “complete loss of intrinsic agonistic properties”. Besides, at CXCR3-PK1 (setting [3]), the “CXCR3-PK1 pEC50 ± SEM” value is “No effect”.

As for `CC(C)(C)OC(=O)NCCCC[C@H](NC(=O)[C@@H]1Cc2ccccc2CN1C(=O)CCC(=O)c1ccccc1)C(=O)NCC(c1ccccc1)c1ccccc1` [Compound 44, Tert-buyl ((S)-6-((2,2-diphenylethyl)amino)-6-oxo-5-((S)-2-(4-oxo-4-phenylbutanoyl)-1,2,3,4-tetrahydroisoquinoline-3-carboxamido)hexyl)carbamate], at CXCR3 (setting [1]), the Emax turned out to be 47 ± 3%. In addition, on CXCR3 (setting [2]), the “CXCR3 pEC50 ± SEM” value turned out to be 5.88±0.10. On CXCR3-PK1 (@10µM, % of CXCL11 mediated effect, CXCR3-PK1), the “CXCR3-PK1 efficacy (%) at 10µM” value is 70%. For the same compound, at CXCR3-PK1 (HEK293-T cells, PathHunter, CXCR3-PK1, two to three experiments in triplicate, read-out: CXCR3-PK1 pEC50 ± SEM (converted)), the EC50 is under 10 µM.

Regarding `CC(C)(C)OC(=O)N[C@@H](CCCCNC(=O)[C@@H]1Cc2ccccc2CN1C(=O)CCC(=O)c1ccco1)C(=O)NCC(c1ccccc1)c1ccccc1` [Compound 20, Tert-butyl ((S)-1-((2,2-diphenylethyl)amino)-6-((S)-2-(4-(furan-2-yl)-4-oxobutanoyl)-1,2,3,4-tetrahydroisoquinoline-3-carboxamido)-1-oxohexan-2-yl)carbamate], at CXCR3 (setting [1]), the “CXCR3 Efficacy (%) ± SEM” value is reported as “No effect”. Further, the “CXCR3 pEC50 ± SEM” value at CXCR3 (setting [2]) was “No effect”. Also, the “CXCR3-PK1 pEC50 ± SEM” value on CXCR3-PK1 (setting [3]) is “No effect”.

On to `CN1CCN(C(=O)CCC(=O)N2Cc3ccccc3C[C@H]2C(=O)NCCCC[C@H](NC(=O)OC(C)(C)C)C(=O)NCC(c2ccccc2)c2ccccc2)CC1.O=C(O)C(F)(F)F` [Compound 18, 4-(4-((S)-3-(((S)-5-((tert-butoxycarbonyl)amino)-6-((2,2-diphenylethyl)amino)-6-oxohexyl)carbamoyl)-3,4-dihydroisoquinolin-2(1H)-yl)-4-oxobutanoyl)-1-methylpiperazin-1-ium 2,2,2-trifluoroacetate], for which the “CXCR3 Efficacy (%) ± SEM” value at CXCR3 (setting [1]) is recorded as “No effect”. The “CXCR3 mediated G protein activation” value at CXCR3 was “no effect”. In addition, the “CXCR3 pEC50 ± SEM” value at CXCR3 (setting [2]) is given as “No effect”. Further, the “CXCR3-PK1 pEC50 ± SEM” value at CXCR3-PK1 (setting [3]) was “No effect”.
